Reference: US10072034B2, “Kinase inhibitors” (Respivert Limited, priority 2016, dated 2018)

What was measured:
p38 MAPKα = p38 MAPKα (Homo sapiens (Human), UniProt Q16539); experiment: p38 MAPKα enzyme inhibition (FRET, Z-LYTE; Method 2); format: biochemical
Method: The enzyme inhibitory activities of compounds disclosed herein are determined by FRET using synthetic peptides labelled with both donor and acceptor fluorophores (Z-LYTE, Invitrogen Ltd., Paisley, UK).
The inhibitory activities of test compounds against the p38 MAPKα isoform (MAPK14: Invitrogen) are evaluated indirectly by determining the level of activation/phosphorylation of the down-stream molecule, MAPKAP-K2. The p38 MAPKα protein (80 ng/mL, 2.5 μL) is mixed with the test compound (2.5 μL of either 4 μg/mL, 0.4 μg/mL, 0.04 μg/mL or 0.004 μg/mL) for 2 hr at RT. […] The mixture is incubated for 1 hr at RT. Development reagent (protease, 5 μL) is added for 1 hr prior to detection in a fluorescence microplate reader (Varioskan® Flash, ThermoFisher Scientific).
This method follows the same steps as Method 1 above, but utilises a higher concentration of the p38 MAPKα protein (2.5 μL of 200 ng/mL protein instead of 2.5 μL of 80 ng/mL protein) for mixing with the test compound (tested at either 1 μg/mL, 0.1 μg/mL, 0.01 μg/mL or 0.001 μg/mL).
In all cases, the site-specific protease cleaves non-phosphorylated peptide only and eliminates the FRET signal. Phosphorylation levels of each reaction are calculated using the ratio of coumarin emission (donor) over fluorescein emission (acceptor), for which high ratios indicate high phosphorylation and low ratios indicate low phosphorylation levels. […]

IL-8 release in PBMCs = experiment: LPS-induced IL-8 release in PBMC cells (assay (b)); format: cell-based; settings: Homo sapiens, LPS-stimulated PBMCs
Text: Peripheral blood mononuclear cells (PBMCs) from healthy subjects are separated from whole blood using a density gradient (Lymphoprep, Axis-Shield Healthcare). […] The supernatant is harvested for determination of IL-8 and TNFα concentrations by sandwich ELISA (Duo-set, R&D systems) and read on the fluorescence microplate reader (Varioskan® Flash, ThermoFisher Scientific).

Chain of p38 MAPKα (Q16539 whole entry): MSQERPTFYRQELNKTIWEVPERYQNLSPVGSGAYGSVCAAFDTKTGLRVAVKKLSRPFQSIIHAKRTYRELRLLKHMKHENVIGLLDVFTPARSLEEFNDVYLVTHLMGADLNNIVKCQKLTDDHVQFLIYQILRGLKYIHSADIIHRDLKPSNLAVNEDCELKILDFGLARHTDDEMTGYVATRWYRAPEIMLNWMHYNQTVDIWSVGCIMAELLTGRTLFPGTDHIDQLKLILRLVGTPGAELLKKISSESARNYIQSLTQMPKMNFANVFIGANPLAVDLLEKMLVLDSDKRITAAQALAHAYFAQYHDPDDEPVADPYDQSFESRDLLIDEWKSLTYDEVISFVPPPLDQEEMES

SMILES: COc1cc(Nc2cc(Oc3ccc(NC(=O)Nc4cc(C(C)(C)C)cc(NS(C)(=O)=O)c4OC)c4ccccc34)ccn2)cc(OCCOCCOCC(=O)O)c1 [Example 3]
- IC50 (p38 MAPKα): 23 nM
- IC50 (IL-8 release in PBMCs): 17.3 nM
